Structures are written as SMILES.

The record followed here is patent publication US8551984B2, “Aminopyrimidines as SYK inhibitors” (Merck Sharp & Dohme Corp., priority 2009, dated 2013).

The target of the first assay is recombinant human SYK (GST-hSYK fusion protein) (Homo sapiens, UniProt P43405). The settings on record: read-out: rhS YK Activity; Table 113C.
Text: Homogeneous Time-Resolved Fluorescence (HTRF) Assay for the Recombinant Human SYK Enzyme:
Consider `Cc1cc(Nc2nccc(C(C)C)n2)cc(-c2cnc(C3(O)CCCNCC3)s2)c1` (stereo not drawn) [113C-14], for which the IC50 is less than 100 nM.

Staying with this assay, now noted: read-out: rhSYK Activity (IC50); recombinant human GST-SYK 5 pM, ATP 25 μM, biotinylated substrate peptide 250 nM, HTRF, 10-dose titration.
`Cc1cc(Nc2nccc(C(F)(F)F)n2)cc(-c2cnc(CNC(CO)C(C)O)s2)c1` (single isomer, unassigned) [Example 88A-44]: the IC50 is less than 100 nM. `Cc1cc(Nc2nccc(C(C)O)n2)cc(-c2cnc(C3(O)CCC(C(=O)O)C(C)(C)C3)s2)c1` (single isomer, unassigned) [Example 100A-15]: the IC50 is less than 100 nM. With `Cc1cc(Nc2nccc(C(O)C3CC3)n2)cc(-c2cnc(C3(O)CCC(C(=O)O)C(C)(C)C3)s2)c1` (single isomer, unassigned) [Example 100A-19], the IC50 is less than 100 nM. Consider `Cc1cc(Nc2nccc(C(F)C3CC3)n2)cc(-c2cnc(C3(O)CCC(C(=O)O)C(C)(C)C3)s2)c1` (single isomer, unassigned) [Example 100A-22], for which the IC50 is less than 100 nM. Same read-out and setting: next, `Cc1cc(Nc2nccc(C(C)(O)C3CC3)n2)cc(-c2cnc(C3(O)CCC(C(=O)O)C(C)(C)C3)s2)c1` (single isomer, unassigned) [Example 100A-26]: less than 100 nM.

The assay is the same for the next values; noted with them: read-out: rhSYK Activity; Table 8A.
As for `Cc1cc(Nc2nccc(C(F)(F)F)n2)cc(-c2cnc(C3(O)CCC(O)C(C)(C)C3)s2)c1` (stereo not drawn) [8A-7], the IC50 was less than 100 nM.

The assay is the same for the next values; noted with them: read-out: rhSYK Activity; Table 33-A.
As to `Cc1cc(Nc2nccc(C(F)(F)F)n2)cc(-c2cnc(C3(O)CCC(C(=O)O)CC3)s2)c1` (stereo not drawn) [Example 33A-6], the IC50 is less than 100 nM. Still for that read-out and setting: the value for `Cc1cc(Nc2nccc(C(F)(F)F)n2)cc(-c2cnc(C3(O)CCC(CCC(=O)O)CC3)s2)c1` (stereo not drawn) [Example 33A-19] was less than 100 nM; that for `Cc1cc(Nc2nccc(C(F)(F)F)n2)cc(-c2cnc(C3(O)CCC(CCC(=O)O)CC3)s2)c1` (stereo not drawn) [Example 33A-20] was less than 100 nM; that for `Cc1cc(Nc2nccc(C)n2)cc(-c2cnc(C3(O)CCC(CC(=O)O)CC3)s2)c1` (stereo not drawn) [Example 33A-33] was less than 100 nM.

`COc1ccnc(Nc2cc(C)cc(-c3cnc(C4(O)CCC(C(=O)O)CC4)s3)c2)n1` (stereo not drawn) [Example 33A-36]: the IC50 is less than 100 nM. In the case of `COc1ccnc(Nc2cc(C)cc(-c3cnc(C4(O)CCC(C)(C(=O)O)CC4)s3)c2)n1` (stereo not drawn) [Example 33A-37], the IC50 is less than 100 nM. As for `Cc1cc(Nc2ncc(F)c(C3CC3)n2)cc(-c2cnc(C3(O)CCC(C(=O)O)C(C)(C)C3)s2)c1` (stereo not drawn) [Example 33A-41], the IC50 was less than 100 nM.

With `Cc1cc(Nc2nccc(C3CC3)n2)cc(-c2cnc(C3(O)CCC(C(=O)O)C(C)(C)C3)s2)c1` (stereo not drawn) [Example 33A-42], the IC50 was less than 100 nM. `CC1(C)CC(O)(c2ncc(-c3cc(CO)cc(Nc4nccc(C(F)(F)F)n4)c3)s2)CCC1C(=O)O` (stereo not drawn) [Example 33A-53]: the IC50 is less than 100 nM. As to `Cc1cc(Nc2nccc(C)n2)cc(-c2cnc(C3(O)CCC(C(=O)O)C(C)(C)C3)s2)c1` (stereo not drawn) [Example 33A-68], the IC50 was less than 100 nM. Turning to `Cc1cc(Nc2nccc(C(F)(F)F)n2)cc(-c2cnc(C3(O)CCC(C(=O)O)C(C)(C)C3C)s2)c1` (stereo not drawn) [Example 33A-76], the IC50 is less than 100 nM.

The assay is the same for the next values; noted with them: read-out: rhSYK Activity; Table 33B.
Regarding `Cc1cc(Nc2nccc(C(F)(F)F)n2)cc(-c2cnc(C3(O)CCC(CC(=O)O)C3)s2)c1` (single isomer, unassigned) [Example 33B-28], the IC50 was less than 100 nM.

With `Cc1cc(Nc2nccc(C(F)(F)F)n2)cc(-c2cnc(C3(O)CCCC(C(=O)O)C(C)(C)C3)s2)c1` (stereo not drawn) [Example 33B-8], the IC50 was less than 100 nM. Regarding `Cc1cc(Nc2nccc(C(F)(F)F)n2)cc(-c2cnc(C3(O)CCCC(C(=O)O)C(C)(C)C3)s2)c1` (stereo not drawn) [Example 33B-9], the IC50 was less than 100 nM. Turning to `Cc1cc(Nc2nccc(C(F)(F)F)n2)cc(-c2cnc(C3(O)CCCC(C(=O)O)C(C)(C)C3)s2)c1` (stereo not drawn) [Example 33B-10], the IC50 is less than 100 nM. As to `Cc1cc(Nc2nccc(C(F)(F)F)n2)cc(-c2cnc(C3(O)CCCC(C(=O)O)C(C)(C)C3)s2)c1` (stereo not drawn) [Example 33B-12], the IC50 was less than 100 nM. Consider `Cc1cc(Nc2nccc(C)n2)cc(-c2cnc(C3(O)CCC(C(=O)O)C(C)C3)s2)c1` (stereo not drawn) [Example 33B-32], for which the IC50 was less than 100 nM.

Staying with this assay, now noted: read-out: rhSYK Activity; Table 33C.
Regarding `Cc1cc(Nc2nccc(C(F)(F)F)n2)cc(-c2cnc(C3(O)CC[C@H]4C(C(=O)O)[C@H]43)s2)c1` (single isomer, unassigned) [Example 33C-7], the IC50 was less than 100 nM.

As to `Cc1cc(Nc2nccc(C(F)(F)F)n2)cc(-c2cnc(C3(O)CC[C@H]4C(C(=O)O)[C@H]43)s2)c1` (single isomer, unassigned) [Example 33C-8], the IC50 was less than 100 nM.

Still in this assay, the particulars now being: read-out: rhSYK Activity; Table 33D.
Turning to `Cc1cc(Nc2nccc(C(F)(F)F)n2)cc(-c2cnc(C(C)(O)CCC(C)(C)C(=O)O)s2)c1` (single isomer, unassigned) [Example 33D-2], the IC50 is less than 100 nM.

Turning to `Cc1cc(Nc2nccc(C(F)(F)F)n2)cc(-c2cnc(C(C)(O)c3ccc(C(=O)O)s3)s2)c1` (single isomer, unassigned) [Example 33D-22], the IC50 was less than 100 nM.

Staying with this assay, now noted: read-out: rhSYK Activity; Table 54B.
Turning to `Cc1cc(Nc2nccc(C(F)(F)F)n2)cc(-c2cnc(C3(O)CCN(C(N)=O)C3)s2)c1` (stereo not drawn) [54B-3], the IC50 was less than 100 nM. As for `Cc1cc(Nc2nccc(C(F)(F)F)n2)cc(-c2cnc(C3(O)CCN(C(N)=O)C3)s2)c1` (stereo not drawn) [54B-7], the IC50 was less than 100 nM. Still for that read-out and setting: the value for `Cc1cc(Nc2nccc(C)n2)cc(-c2cnc(C3(O)CCN(C(N)=O)C3)s2)c1` (stereo not drawn) [54B-14] was less than 100 nM; that for `Cc1cc(Nc2nccc(C)n2)cc(-c2cnc(C3(O)CCN(C(N)=O)C3)s2)c1` (stereo not drawn) [54B-15] was less than 100 nM.

Still in this assay, the particulars now being: read-out: rhSYK Activity; Table 54D.
With `Cc1cc(Nc2nccc(C(F)(F)F)n2)cc(-c2cnc(C3(O)CCCN(C(=O)CC(N)=O)CC3)s2)c1` (single isomer, unassigned) [Example 54D-21], the IC50 was less than 100 nM.

With `Cc1cc(Nc2nccc(C(F)(F)F)n2)cc(-c2cnc(C3(O)CCCN(C(=O)CC(=O)O)CC3)s2)c1` (single isomer, unassigned) [Example 54D-26], the IC50 is less than 100 nM.

For the compound `Cc1cc(Nc2nccc(C(F)(F)F)n2)cc(-c2cnc(C3(O)CCCN(C(=O)C(O)CO)CC3)s2)c1` (single isomer, unassigned) [Example 54D-29], the IC50 was less than 100 nM. Consider `Cc1cc(Nc2nccc(C(F)(F)F)n2)cc(-c2cnc(C3(O)CCCN(C(=O)c4cnn[nH]4)CC3)s2)c1` (single isomer, unassigned) [Example 54D-37], for which the IC50 was less than 100 nM.

As to `Cc1cc(Nc2nccc(C(F)(F)F)n2)cc(-c2cnc(C3(O)CCCN(C(=O)c4cnon4)CC3)s2)c1` (single isomer, unassigned) [Example 54D-39], the IC50 is less than 100 nM. In the case of `Cc1cc(Nc2nccc(C(F)(F)F)n2)cc(-c2cnc(C3(O)CCCN(C(=O)CCC(N)=O)CC3)s2)c1` (single isomer, unassigned) [Example 54D-42], the IC50 was less than 100 nM. `Cc1cc(Nc2nccc(C(F)(F)F)n2)cc(-c2cnc(C3(O)CCCN(C(=O)c4cnnn4C)CC3)s2)c1` (single isomer, unassigned) [Example 54D-51]: the IC50 is less than 100 nM. With `Cc1cc(Nc2nccc(C(F)(F)F)n2)cc(-c2cnc(C3(O)CCCN(C(=O)Cn4ccnn4)CC3)s2)c1` (single isomer, unassigned) [Example 54D-53], the IC50 is less than 100 nM. Turning to `Cc1cc(Nc2nccc(C(F)(F)F)n2)cc(-c2cnc(C3(O)CCCN(C(=O)c4nnnn4C)CC3)s2)c1` (single isomer, unassigned) [Example 54D-58], the IC50 is less than 100 nM.

In the case of `Cc1cc(Nc2nccc(C(F)(F)F)n2)cc(-c2cnc(C3(O)CCCN(C(=O)Cc4nnn[nH]4)CC3)s2)c1` (single isomer, unassigned) [Example 54D-60], the IC50 is less than 100 nM. Turning to `CCOC(=O)CC(=O)N1CCCC(O)(c2ncc(-c3cc(C)cc(Nc4nccc(C(F)(F)F)n4)c3)s2)CC1` (single isomer, unassigned) [Example 54D-74], the IC50 is less than 100 nM. Same read-out and setting: the value for `Cc1cc(Nc2nccc(C(F)(F)F)n2)cc(-c2cnc(C3(O)CCCN(C(=O)C(C)(CO)CO)CC3)s2)c1` (single isomer, unassigned) [Example 54D-80] was less than 100 nM; that for `Cc1cc(Nc2nccc(C(F)(F)F)n2)cc(-c2cnc(C3(O)CCCN(C(=O)c4[nH]nnc4Cl)CC3)s2)c1` (single isomer, unassigned) [Example 54D-101] was less than 100 nM; that for `Cc1cc(Nc2nccc(C(F)(F)F)n2)cc(-c2cnc(C3(O)CCCN(C(=O)c4nn[nH]c4C(F)(F)F)CC3)s2)c1` (single isomer, unassigned) [Example 54D-108] was less than 100 nM.

As for `Cc1cc(Nc2nccc(C(F)(F)F)n2)cc(-c2cnc(C3(O)CCCN(C(=O)c4n[nH]c(C(F)(F)F)n4)CC3)s2)c1` (single isomer, unassigned) [Example 54D-110], the IC50 is less than 100 nM. For `Cc1cc(Nc2nccc(C(F)(F)F)n2)cc(-c2cnc(C3(O)CCCN(S(N)(=O)=O)CC3)s2)c1` (single isomer, unassigned) [Example 54D-117], the IC50 is less than 100 nM. Regarding `Cc1cc(Nc2nccc(C(F)(F)F)n2)cc(-c2cnc(C3(O)CCCN(C(N)=O)CC3)s2)c1` (single isomer, unassigned) [Example 54D-120], the IC50 was less than 100 nM. Take `Cc1cc(Nc2nccc(C(F)(F)F)n2)cc(-c2cnc(C3(O)CCCN(C(=O)CO)CC3)s2)c1` (single isomer, unassigned) [Example 54D-123]: the IC50 is less than 100 nM. Take `Cc1cc(Nc2nccc(C(F)(F)F)n2)cc(-c2cnc(C3(O)CCCN(C(=O)c4nc[nH]n4)CC3)s2)c1` (single isomer, unassigned) [Example 54D-125]: the IC50 is less than 100 nM.

The same assay, now with this note: read-out: rhSYK Activity; Table 74A.
Regarding `CC(C)(c1ncc(-c2cc(F)cc(Nc3nccc(C(F)(F)F)n3)c2)s1)S(N)(=O)=O` [74A-10], the IC50 was in the range of 100 to 1000 nM.

The assay is the same for the next values; noted with them: read-out: rhSYK Activity; Table 116A.
Turning to `Cc1cc(Nc2nccc(C(F)F)n2)cc(-c2cnc(C3(O)CCC(C(=O)O)C(C)C3)s2)c1` (stereo not drawn) [116A-19], the IC50 is less than 100 nM. On to `Cc1cc(Nc2ncc(Cl)c(C)n2)cc(-c2cnc([C@]3(O)CC[C@@H](C(=O)O)C(C)(C)C3)s2)c1` [116A-26], for which the IC50 is less than 100 nM.
